Test results reported in US12172972B1, “3-(3-bromophenyl)-5-((2-isopropyl-5-methylphenoxy)methyl)-1,2,4-oxadiazole as an anti-cancer and antimicrobial compound” (KING FAISAL UNIVERSITY, priority 2023, dated 2024).

Tests used:
Type in all cases: cell-based
[1] = test system: human prostate cancer cells (PC3); test: cytotoxicity by SRB assay; settings: 0.01 μM to 100 μM, 72 h
Description: (§1) The anticancer activity of the described synthesized compounds against highly aggressive androgen-independent metastatic human prostate cancer cells (PC3) and osteosarcoma (MG-63) cells. The human prostate cancer cells (PC3) and human osteosarcoma cells (MG-63) were obtained from Nawah Scientific Inc. (Mokatam, Cairo, Egypt) and cultured in DMEM (Dulbecco's modified eagle's medium), Gibco, USA, supplemented with fetal bovine serum (FBS) at a concentration of 10% and 100 U/mL of penicillin and streptomycin (PS). The Cells were incubated at 37° C. in a humidified environment that contained 5% CO2.
(§2) Cells were seeded in 96-well plates as aliquots of 100 μL cell suspension and incubated in a complete media for 24 h, afterward, cells were treated with 3-(3-bromophenyl)-5-((2-isopropyl-5-methylphenoxy)methyl)-1,2,4-oxadiazole at diverse concentrations ranging from 0.01 μM to 100 μM for 72 h. Then, cells were fixed at 4° C. for one hour with 150 μL of 10% trichloroacetic acid (TCA). […] Then, 150 μL of Tris pH 10.5 (10 mM) was added, and the absorbance was measured at 540 nm using a BMG LABTECH®-FLUOstar Omega microplate reader (Ortenberg, Germany). Half maximal inhibitory concentrations (IC50) values were calculated for each experiment using GraphPad Prism 6 software. […]
(§3) The inhibition was calculated using the following equation: Inhibition %=100−Average Viability

[2] = test system: human osteosarcoma cells (MG-63); test: cytotoxicity by SRB assay; settings: MG-63 cells, 0.01 μM to 100 μM, 72 h
Description: as §1, §2, §3

Staphylococcus aureus = test: agar plate disc-diffusion, inhibition zone
Procedure: (§4) The agar plate disc-diffusion method was applied. […] The discs were then placed onto the surface of agar plates (nutrient agar for bacteria and Sabouraud's dextrose agar for fungi) seeded with the test organism. Each plate contained 15 mL of the agar medium, previously seeded with 0.2 mL of the broth culture of each organism pregrown for 18 hours. The plates were incubated at 37° C. for 48 h, and 72 h for fungi. The inhibition zones were measured in mm. Discs impregnated with DMSO were used as a control, and its inhibition zone was subtracted from the tested compound actual inhibition zone.

Pseudomonas aeruginosa = test: agar plate disc-diffusion, inhibition zone
Procedure: as §4

Aspergillus flavus = test: agar plate disc-diffusion, inhibition zone
Procedure: as §4

Escherichia coli = test: agar plate disc-diffusion, inhibition zone
Procedure: as §4

[3] = test system: Chrysosporium keratinophilum; test: agar plate disc-diffusion, inhibition zone
Procedure: as §4

Bacillus cereus = test: agar plate disc-diffusion, inhibition zone
Procedure: as §4

different microbes = test: antimicrobial activity, agar plate disc-diffusion (overall statement); settings: against different microbes
Procedure: The agar plate disc-diffusion method was applied. Sterilized filter papers (6 mm in diameter) were wetted with 10 μL of a solution of 3-(3-bromophenyl)-5-((2-isopropyl-5-methylphenoxy)methyl)-1,2,4-oxadiazole (3) to be tested, containing 10 mg/mL in DMSO, and the discs were allowed to air dry. The discs were then placed onto the surface of agar plates (nutrient agar for bacteria and Sabouraud's dextrose agar for fungi) seeded with the test organism. Each plate contained 15 mL of the agar medium, previously seeded with 0.2 mL of the broth culture of each organism pregrown for 18 hours. The plates were incubated at 37° C. for 48 h, and 72 h for fungi. The inhibition zones were measured in mm. Discs impregnated with DMSO were used as a control, and its inhibition zone was subtracted from the tested compound actual inhibition zone.

[4] = A = concentration of comp. = 10,000 μL
[5] = C = concentration of comp. = 50,000 μL

SMILES	inhibition zone (Staphylococcus aureus; [4])	inhibition zone (Staphylococcus aureus; B = concentration of comp.)	inhibition zone (Staphylococcus aureus; [5])	inhibition zone (Pseudomonas aeruginosa; [4])	inhibition zone (Pseudomonas aeruginosa; B =)	inhibition zone (Pseudomonas aeruginosa; [5])	inhibition zone (Aspergillus flavus; [4])	inhibition zone (Aspergillus flavus; B =)	inhibition zone (Aspergillus flavus; [5])	inhibition zone (Escherichia coli; [4])	inhibition zone (Escherichia coli; B =)	inhibition zone (Escherichia coli; [5])	inhibition zone [3, 4]	inhibition zone ([3]; B = concentration of comp.)	inhibition zone [3, 5]	inhibition zone (Bacillus cereus; [4])	inhibition zone (Bacillus cereus; B =)	inhibition zone (Bacillus cereus; [5])	also measured
Cc1ccc(C(C)C)c(OCc2nc(-c3cccc(Br)c3)no2)c1 [3-(3-bromophenyl)-5-((2-isopropyl-5-methylphenoxy)methyl)-1,2,4-oxadiazole]	–	–	–	–	–	–	–	–	–	–	–	–	–	–	–	–	–	–	antiproliferative activities [1]: excellent antiproliferative activities; antiproliferative activities [2]: excellent antiproliferative activities
O=C(O)c1cn(C2CC2)c2cc(N3CCNCC3)c(F)cc2c1=O [Cip., ciprofloxacin, reference compound]	43 mm	44 mm	53 mm	29 mm	30 mm	53 mm	29 mm	30 mm	42 mm	30 mm	39 mm	60 mm	29 mm	30 mm	53 mm	29 mm	30 mm	42 mm	–
Cc1ccc(C(C)C)c(OCc2nc(-c3cccc(Br)c3)no2)c1 [Compound 3, 3-(3-bromophenyl)-5-((2-isopropyl-5-methylphenoxy)methyl)-1,2,4-oxadiazole]	12 mm	16 mm	19 mm	26 mm	28 mm	40 mm	20 mm	24 mm	32 mm	28 mm	36 mm	52 mm	25 mm	28 mm	47 mm	27 mm	29 mm	40 mm	antimicrobial activities (different microbes): excellent antimicrobial activities
